Data published in paper PMC5424463, “A strategy based on nucleotide specificity leads to a subfamily-selective and cell-active inhibitor of N ^6-methyladenosine demethylase FTO” (Chemical Science, 2014).

Biological target: T1, PHD2 (Homo sapiens, UniProt Q9GZT9)
T1 construct: Full length human PHD2 (fused to a MYC/DDK tag at C-terminal); purchased Origene Technology, USA
Experiment: MALDI-based inhibition assay for PHD2
Type: biochemical
Conditions: 19-mer peptide substrate
Method: IC50s were then calculated from the variation in percentage demethylation at different inhibitor concentrations, using nonlinear regression, with normalized dose-response fit on […]
MALDI-based inhibition assays for FTO and ALKBH5
The assay was modified from previously reported method.[5] An 8-mer m6A-ssDNA substrate with the sequence 5’-TCA(m6A)CAGC-3’ (Yale University, W.M. Keck Foundation Biotechnology Resource Laboratory) was used in this inhibition assay. The assay was performed in triplicate for each inhibitor, in a final reaction volume of 25 µL. Reaction consisted of FTO (2 µM) or ALKBH5 (4 µM), 2OG (150 µM), (NH4)2Fe(SO4)2·6H2O (150 µM), L-ascorbate (2 mM), m6A-ssDNA substrate (100 µM), in 50 mM HEPES buffer, pH 7.5, and inhibitor at various concentrations (final DMSO concentration not more than 1% v/v of assay mix). The reaction was incubated at room temperature for 30 min, before 1:1 quenching with 20% v/v formic acid. 1 uL of the diluted assay mixture was then mixed with 1 uL of 3-hydroxpicolinic acid (3-HPA, the MALDI-TOF-MS matrix, Sigma-Aldrich) and spotted onto the MALDI-TOF-MS plate before analysis. The 3-HPA matrix was prepared by mixing 9 parts of 50 mg/mL 3-hydroxpicolinic acid in 50% MeCN/Milli-Q H2O with 1 part of 50 mg/mL ammonium citrate in Milli-Q H2O. […]

T1 sequence (Q9GZT9 whole entry, the tested form may be a part): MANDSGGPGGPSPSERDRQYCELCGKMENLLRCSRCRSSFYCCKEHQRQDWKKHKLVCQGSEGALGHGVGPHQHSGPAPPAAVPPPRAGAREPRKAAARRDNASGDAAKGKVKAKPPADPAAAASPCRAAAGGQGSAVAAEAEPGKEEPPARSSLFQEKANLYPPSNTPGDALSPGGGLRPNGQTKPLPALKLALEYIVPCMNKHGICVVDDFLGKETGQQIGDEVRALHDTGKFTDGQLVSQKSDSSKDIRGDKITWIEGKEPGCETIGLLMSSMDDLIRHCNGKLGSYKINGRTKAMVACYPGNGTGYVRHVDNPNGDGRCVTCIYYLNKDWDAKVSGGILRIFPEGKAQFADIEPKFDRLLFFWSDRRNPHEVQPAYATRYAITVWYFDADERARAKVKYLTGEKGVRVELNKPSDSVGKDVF

O=C(O)/C=C/C(=O)NNC(=O)c1cnccc1Cc1ccccc1 [Compound 12]
IC50: > 100 µM
